In US20030190692A1, “Method for measuring the activity of the blood clotting factor XIIIA” (priority 2000, published 2003):

Experiments:
[1] = tested on: FXIIIa; conditions: animal models; Leidy et al. 1990; cited from earlier work
[2] = biological target: FXIIIa (Homo sapiens, UniProt P00488); assay: biochemical
Chain of FXIIIa (Homo sapiens, UniProt P00488) (P00488 39-732 limits assumed): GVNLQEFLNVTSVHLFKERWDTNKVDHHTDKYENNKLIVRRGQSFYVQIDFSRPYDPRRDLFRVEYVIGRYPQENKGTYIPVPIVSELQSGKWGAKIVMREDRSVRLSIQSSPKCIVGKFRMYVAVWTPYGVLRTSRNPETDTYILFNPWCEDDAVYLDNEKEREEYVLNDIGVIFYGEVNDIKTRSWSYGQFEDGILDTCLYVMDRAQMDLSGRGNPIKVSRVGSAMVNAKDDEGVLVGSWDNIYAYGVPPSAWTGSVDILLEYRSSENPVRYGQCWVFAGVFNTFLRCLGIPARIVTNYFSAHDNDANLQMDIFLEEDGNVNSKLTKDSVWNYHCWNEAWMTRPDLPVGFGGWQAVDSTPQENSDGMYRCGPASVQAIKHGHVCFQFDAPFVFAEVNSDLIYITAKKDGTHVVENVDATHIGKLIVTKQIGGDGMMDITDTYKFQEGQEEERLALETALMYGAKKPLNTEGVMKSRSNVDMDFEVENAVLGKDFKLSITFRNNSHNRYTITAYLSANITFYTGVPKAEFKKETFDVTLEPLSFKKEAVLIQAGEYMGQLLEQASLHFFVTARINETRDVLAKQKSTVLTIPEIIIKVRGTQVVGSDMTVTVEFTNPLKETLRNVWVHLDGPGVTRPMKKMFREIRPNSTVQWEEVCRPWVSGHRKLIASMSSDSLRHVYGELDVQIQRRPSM

| Structure (SMILES) | Effect on thrombolysis by a plasminogen activator [1] | IC50 [2] |
| --- | --- | --- |
| CC(=O)CSc1n[n+]2c(C)csc2s1.[O-][Cl+3]([O-])([O-])[O-] [L722151] | improve the thrombolysis |  |
| O=C(O)CI [iodoacetic acid] |  | 147 µM |
